In PubChem BioAssay (NCI):
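Following 48 hours of exposure in 96-well plates, responses at five concentrations were used to interpolate endpoints linearly. The concentration for full growth arrest is given as TGI.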 Where a SMILES comes first, the peptide text is derived from it. Bridges are numbered along the chain shown (N, C = ends). [ ]: non-standard residue; d: D form. The star is where a group is joined. Cbz = O=C(OCc1ccccc1)*; Aib = CC(C)(N)C(=O)O; OBn = c1ccc(CO*)cc1; βAla = NCCC(=O)O

Tests used:
Assay in all cases: inhibition of tumour cell growth, NCI panel, 48 h
HL-60(TB) leukemia = test system: HL-60(TB) leukemia
LOX IMVI melanoma = test system: LOX IMVI melanoma
SW-620 colon = test system: SW-620 colon
U251 CNS = test system: U251 CNS
CAKI-1 renal = test system: CAKI-1 renal
BT-549 breast = test system: BT-549 breast
OVCAR-8 ovarian = test system: OVCAR-8 ovarian
CCRF-CEM leukemia = test system: CCRF-CEM leukemia
SF-268 CNS = test system: SF-268 CNS
NCI-H460 lung = test system: NCI-H460 lung
HT29 colon = test system: HT29 colon
PC-3 prostate = test system: PC-3 prostate
DU-145 prostate = test system: DU-145 prostate
COLO 205 colon = test system: COLO 205 colon
KM12 colon = test system: KM12 colon
MOLT-4 leukemia = test system: MOLT-4 leukemia
SF-295 CNS = test system: SF-295 CNS
SK-MEL-5 melanoma = test system: SK-MEL-5 melanoma
SNB-19 CNS = test system: SNB-19 CNS
HCC-2998 colon = test system: HCC-2998 colon

Compound	TGI (HL-60(TB) leukemia) [µM]	TGI (LOX IMVI melanoma) [µM]	TGI (SW-620 colon) [µM]	TGI (U251 CNS) [µM]	TGI (CAKI-1 renal) [µM]	TGI (BT-549 breast) [µM]	TGI (OVCAR-8 ovarian) [µM]	TGI (CCRF-CEM leukemia) [µM]	TGI (SF-268 CNS) [µM]	TGI (NCI-H460 lung) [µM]	TGI (HT29 colon) [µM]	TGI (PC-3 prostate) [µM]	TGI (DU-145 prostate) [µM]	TGI (COLO 205 colon) [µM]	TGI (KM12 colon) [µM]	TGI (MOLT-4 leukemia) [µM]	TGI (SF-295 CNS) [µM]	TGI (SK-MEL-5 melanoma) [µM]	TGI (SNB-19 CNS) [µM]	TGI (HCC-2998 colon) [µM]
C1=C2C3=[N+](CCCC3)CC2Cc2ccsc21 (stereo not given)	> 100	> 100	> 100	> 100	> 100	> 100	> 100	> 100	> 100	> 100	> 100	> 100	> 100	> 100	> 100	> 100	> 100	> 100	> 100	–
O=C1C(Br)=CC2(C=C1Br)CCN=c1c(O)c3c(c(O)c12)=NC=N3	35	27.1	31.9	28.4	41	33.3	31.9	48.9	28.2	32.8	29.2	> 100	29.6	37.6	30.9	> 100	30	23.4	–	46.3
Cc1c(Cc2ccccc2)n(COCCCO)c(=O)[nH]c1=O	–	> 100	> 100	> 100	> 100	> 100	> 100	> 100	> 100	> 100	> 100	> 100	> 100	> 100	> 100	> 100	> 100	> 100	> 100	> 100
CSc1ccc(C2C(Cl)C(=O)N2NC(=O)c2c(Cl)c(Cl)c(Cl)c(Cl)c2-c2nc3ccccc3[nH]2)cc1 (stereo not given)	55.1	15.6	> 100	–	42.8	48.1	59.9	–	64.4	–	> 100	45.8	31.3	40.6	34.8	68.7	> 100	35.7	73.4	37
Cc1nc(N)c(N2CCNCC2)c(=O)[nH]1	> 100	> 100	> 100	> 100	–	> 100	> 100	> 100	> 100	> 100	> 100	> 100	> 100	> 100	> 100	> 100	> 100	–	> 100	> 100
Nc1nc(Cl)cc(NCC2(CO)CC(OCc3ccccc3)C2)n1 (stereo not given)	> 100	> 100	> 100	> 100	> 100	> 100	> 100	> 100	74.8	> 100	> 100	> 100	> 100	> 100	> 100	–	> 100	> 100	> 100	> 100
Clc1ccc2c(NCCCCN=Cc3ccccc3)ccnc2c1	–	> 100	25.2	24.5	–	32.6	32	> 100	35	24.2	21.6	25.1	80.8	18.1	20.8	25.7	28	26.5	45.7	27.8
COC1(OC)C2(Cl)CCC1(Cl)C(OC(C)=O)C2 (stereo not given)	–	> 100	> 100	> 100	> 100	> 100	> 100	> 100	> 100	> 100	> 100	> 100	> 100	> 100	> 100	> 100	> 100	> 100	> 100	> 100
CCC1c2[nH]c3ccccc3c2C[C@H]2C(=O)NC(CCC(=O)OC(C)(C)C)C(=O)N12 (stereo not given in full)	> 100	> 100	> 100	> 100	> 100	> 100	> 100	–	> 100	–	> 100	> 100	> 100	72.3	> 100	> 100	> 100	> 100	> 100	–
CNC(=O)N1CCN(C(=O)NC)CCN(C(=O)NC)CC1	> 100	> 100	> 100	> 100	–	> 100	> 100	> 100	> 100	> 100	> 100	> 100	> 100	> 100	–	> 100	> 100	> 100	> 100	> 100
c1ccc2c(c1)nc1n2CNCC1	> 100	73.3	> 100	> 100	> 100	> 100	> 100	–	> 100	> 100	> 100	> 100	> 100	> 100	> 100	> 100	> 100	> 100	> 100	> 100
CCOc1cc(NC(C)=O)ccc1C(=O)NN1C(=O)C(Oc2ccccc2)C1c1ccc(O)c(OC)c1 (stereo not given)	44.8	> 100	> 100	> 100	> 100	> 100	96.8	54.5	–	–	> 100	> 100	> 100	83.9	> 100	32.3	> 100	49.5	> 100	–
COc1ccc2c(c1)OCc1c-2oc2ccccc2c1=O	–	> 100	–	> 100	> 100	> 100	> 100	> 100	> 100	–	> 100	> 100	> 100	> 100	> 100	> 100	> 100	> 100	–	> 100
CC1(C)NC(=O)C(NC(=O)C(CC(=O)OCc2ccccc2)NC(=O)OCc2ccccc2)CCCCNC(=O)CCNC1=O (stereo not given) (Cbz-D(OBn)K[Aib][βAla]; lactam 2-C; configuration not given here)	> 100	> 100	> 100	> 100	> 100	> 100	> 100	–	> 100	> 100	> 100	> 100	> 100	> 100	> 100	> 100	> 100	> 100	> 100	> 100
COC(=O)CCC(=O)NC1c2cccc3cccc(c23)Cn2c(=O)n(C)c(=O)n21 (stereo not given)	–	> 100	> 100	> 100	> 100	> 100	> 100	> 100	> 100	> 100	> 100	> 100	> 100	> 100	> 100	> 100	> 100	> 100	> 100	> 100
COc1ccc(OC)c2c1C(=O)C(Cl)=C(N1CCN(CCOCCO)CC1)C2=O	3.33	–	28.7	41.3	–	28	30.9	14.1	29.5	38	19.8	16	32.8	–	37.2	32.8	32.9	31.3	29.5	24.9
CC1=C2C3=C(C)C(=O)C(C)(C)CC[C@@]3(C)[C@]2(C)CCC(C)(C)C1=O	> 100	> 100	> 100	> 100	> 100	> 100	> 100	> 100	> 100	–	> 100	> 100	> 100	> 100	> 100	> 100	> 100	> 100	> 100	–
CCN(CC)Cc1cc(Nc2ccnc3ccc4c(nnn4C)c23)ccc1O	50.6	29.9	–	–	33.3	37.1	41.9	35.7	29.9	14.2	> 100	20.8	31.4	32.4	39.7	> 100	25.9	29.9	21.3	10.7
CC(C(=O)N1c2ccccc2Sc2ccccc21)N1c2ccccc2Sc2ccccc21 (stereo not given)	> 100	> 100	> 100	> 100	–	> 100	> 100	> 100	> 100	> 100	> 100	> 100	> 100	> 100	> 100	> 100	> 100	> 100	> 100	–
Nc1ccc(C(=O)Nn2c(-c3ccccc3)nc3ccccc3c2=O)cc1	> 100	> 100	> 100	> 100	–	> 100	> 100	> 100	> 100	> 100	> 100	> 100	> 100	> 100	> 100	> 100	> 100	> 100	> 100	> 100
Cc1oc2nc(N(C)C)nc(Cl)c2c1C	> 100	–	> 100	> 100	> 100	> 100	> 100	> 100	> 100	> 100	> 100	> 100	> 100	> 100	> 100	> 100	> 100	> 100	> 100	> 100
CSc1nc(Cl)c2c(n1)Sc1nc3cc4c(cc3n1C2O)OCO4 (stereo not given)	–	0.746	> 81.8	> 50.1	> 100	> 31.3	3.85	> 100	> 100	> 32	7.55	> 60.3	> 100	0.686	> 100	> 100	> 83.2	7.49	> 100	> 60.9
O=C(c1ccccc1)c1c2ccccn2c2cccc[n+]12	> 100	> 100	> 100	> 100	> 100	> 100	> 100	> 100	> 100	> 100	> 100	> 100	> 100	> 100	> 100	> 100	> 100	> 100	–	> 100
Cc1cc(O)c(/C=N/C(=S)NCCc2ccccc2)c(=O)o1	> 100	> 100	> 100	> 100	> 100	> 100	> 100	–	–	> 100	> 100	> 100	> 100	> 100	> 100	> 100	> 100	> 100	> 100	> 100
Oc1cc(O)c2c(c1)O[C@H](c1cc(O)c(O)c(O)c1)[C@H](O)C2	42.2	77.6	32.9	30.4	> 100	56.6	29.6	42.4	61.2	38.5	–	42.9	> 100	33.2	–	32.9	83.7	37.6	> 100	–
